The results in this text go back to patent publication US10335417B2, “Thiazideamide derivative and use thereof” (Institute of Pharmacology and Toxicology Academy of …, priority 2015, dated 2019).

Series [1] relates to chick embryo dorsal root ganglion. Put plainly: in vitro serum-free culture model of chick embryonic dorsal root ganglion: neurite growth score with NGF. In kind it is cell-based. The settings on record: 48 h, score 0-3, average of five ganglions, control 0.33. On the procedure:
The neurotrophic activity of the compounds according to the invention can be embodied in multiple in vitro biological models, such as in vitro serum-free culture model of chick embryonic dorsal root ganglion.
Experimental method: in a sterile environment, chick embryo, which had been incubated for 8 d, had the spinal and bilateral ganglion exposed under anatomical lens. Dorsal root ganglions were picked one by one using sharp forceps, and seeded in culture bottles spread with rat tail collagen, at a density of 5-6 ganglions per bottle, and two bottles for each dose. After attachment culture in a 37° C., 5% CO2 incubator for 1 h, serum-free medium DMEM containing nerve growth factor (NGF) (0.15 ng/mL), and the compound according to the invention were added. In the control group, only the medium and the same dose of NGF were added. After culture in the incubator for 48 h, the growth of neurite around dorsal root ganglion was observed under inverted phase contrast microscope, which was scored depending on the length and density of neurite.
Evaluation criteria: 0: no neurite; 1: rare long neurite; 2: relatively long or dense neurite; 3: long and dense neurite.

The subject of series [2] is BCAO-LBP mice (incomplete global cerebral ischemia). Put plainly: mouse BCAO-LBP model of incomplete global cerebral ischemia: cerebral MDA content and neurological function score. In kind it is in vivo, Kunmin mice. The source says: In the Example, Kunmin mice were used as experimental subjects, intragastric (i.g.) administration was used, mouse BCAO-LBP (bilateral carotid artery occlusion with low blood pressure) model was used, and by determining neurological function score and the cerebral malondialdehyde (MDA) content in mice, the compounds were investigated for their protective effects on incomplete global cerebral ischemia in mice when administered prophylactically.
2.1.2 Preparation of a drug for intragastric administration: the compound was prepared to a 1.5 mg/ml solution using 0.7% CMC-Na solution.
28 mice, which had adapted to the laboratory environment for 1 week, were evenly grouped depending on body weight. The mice were intragastrically administered with 0.7% CMC-Na or one of the compounds, once/d, for 3 d. The groups were as followed:
Administration group: 12 mice, intragastrically administered at a dose of 0.2 ml/10 g, i.e., the dose of the compound was 30 mg/kg.
2.3.1 Mouse bilateral carotid artery ligation: 1 h after the last administration, the mice were subjected to orbital bloodletting to reduce blood pressure (which was about 30% of the total blood volume of the mice), and then fixed in supine position on the operating table, and cut in the middle of neck. Carotid artery was subjected to blunt dissection, and 2 lines were used in ligation for each side. The time counting started after the ligation with the third line, the carotid artery was cut off between the two lines, and the incision was sewn up. In the Sham-operated group, the carotid artery was only separated without ligation. After the operation, the mice were unfixed quickly, and the mice were observed and recorded for the behaviors within 6 h (scoring depending on the following table using blind method) and the death time. The brains were taken quickly after the mice died, the cerebellums were removed, and the MDA content in the whole cerebrum was determined by thiobarbituric acid (TBA).
The cerebra of mice were taken and weighed, and were prepared into 15% brain homogenate using N.S. 1.2 ml brain homogenate was placed in a 37° C. water bath for 1 h (shaking once every 10 min) and then taken out. 20% trichloroacetic acid 0.6 ml was added, and the mixture was mixed well, and was on standing for 10 min. After centrifugation at 2000 rpm for 10 min, to 1.2 ml supernatant, 0.67% TBA 0.6 ml was added. The mixture was placed in a boiling water bath for 10 min, and was taken out for cooling, and the OD value at a wavelength of 532 nm was determined.
The experimental data was expressed as x±SEM; SPSS 13.0 statistic software was used. Homogeneity or heterogeneity of variance was determined by one-factor analysis of variance. In the case of homogeneity of variance, LSD test was used; in the case of heterogeneity of variance, Dunnett's T3 test was used. Significant difference among different groups was compared, and P<0.05 indicated statistical significance.

Series [3] in a line: in vitro. The settings on record: dog, MDCK-MDR1. The source says: MDCK-MDR1 cells were monolayer cells which highly express P-gp transporter after transfection of MDCK (Madin-Darby canine kidney epithelial cell) with MDR1 gene. Due to its density and high expression of efflux protein, the monolayer has similarity compared to blood-brain barrier (BBB) structure and now can be used as one of models for evaluating the ability of passing through BBB. In the invention, MDCK-MDR1 cells were used to study the membrane permeability of the compounds according to the invention, and to primarily evaluate its ability of passing through BBB.
The frozen MDCK-MDR1 cells were quickly thawed in a 37° C. water bath. To the resuscitated cells, DMEM medium containing 10% FBS was added, and the cells were cultured in an incubator at 37° C., 5% CO2, and a relative humidity of 90%. The medium was changed every other day. After fusion of the cells growing for 1-2 days, the cells were digested with 0.25% trypsin-EDTA (0.2%) mixed digestion solution at 37° C., and were sub-cultured at a certain ratio. The cells for use in experiment were those passaged for 40-60 generations.
When the cell fusion degree reached 80%, the cells were digested and then suspended in complete medium, and seeded to Millicell plate at 1×10^6 cells·mL^−1. The medium was changed every other day, and 1 week later, the medium was changed every day. After culturing for 5 days, the resistance value reached a constant value (>200 Ω·cm^2), and the cells could be used in the transport experiment.
After washing with 37° C. HBSS twice, the cells were incubated in a 37° C. culture incubator, wherein Rho-123 was added to the upper wells, and HBSS was added to the bottom wells. The incubation was carried out in a constant temperature shaker, and the solutions from the bottom wells were collected at each time point (0 min, 30 min, 90 min, 120 min), and stored at −20° C. for further use. The amount of Rho-123 permeated to the bottom well was determined by fluorospectrophotometer, wherein the emission wavelength was […], and the excitation wavelength was 530 nm.
The permeability from cavity-surface to basal surface: drug-containing HBSS 0.35 mL was add to Apical (AP), and blank HBSS 1.2 mL was added to Basolateral (BL). The Millicell was placed at 37° C. in a shaker under shaking at 50 r·min^−1, 50 μL sample was collected from the bottom well at 0, 30, 90, 120 min, respectively, and the same volume of blank HBSS was supplemented. 3 wells were set for each concentration, and to the sample, an internal standard solution (50 μL) and ethyl acetate (350 μL) were added precisely. The mixture was mixed homogeneously under shaking, and centrifuged at 12000 rmp for 5 min. The supernatant (300 μL) was volatilized to dryness, and re-dissolved in 50 μL acetonitrile. The 10 μL resultant solution was used for determination.
The permeability from basal surface to cavity surface: the drug is added to Basolateral (BL), and blank HBSS was added to Apical (AP), and the other steps were the same as those of the experiment for determining the permeability from cavity-surface to basal surface.
The apparent permeability coefficient (Papp) of a drug reflects the ability of the drug to pass through cell monolayer and the drug absorption rate and extent. It can be calculated in accordance with the following equation: […]
wherein, Q represents the amount of drug permeated in the t period, A represents cell surface area, and represents the area (0.6 cm^2) of supporting film in this model, and C0 represents an initial concentration. The unit of Papp is expressed as cm·s^−1.
By measurement using LC/MS, the concentration of each sample was quantitated using its standard curve (50 nM-10000 nM).

[4] abbreviates: compound 100 pM + NGF 0.15 ng/mL.

For the compound `CCC(C)[C@H](NC(=O)[C@@H]1CSCCN1S(=O)(=O)c1ccc(C)cc1)C(=O)OC` (stereo partly drawn) [Compound 8, (2S,3R)-methyl-3-methyl-2((R)-(4-methylphenyl)sulfonyltetrahydro-1,4-thiazin-3-aminoformyl)valerate], the “Average score (growth of neurites of chick embryo dorsal root ganglion)” value (from here on “Average score”) in series [1] (compound 1 pM + NGF 0.15 ng/mL) is 1.78; in series [1] (setting [4]), 2.45. This compound came in with a Neurologic deficit score in series [2] (30 mg/kg i.g. once/d for 3 d, behaviour within 6 h after ligation, x ± SEM, model group 3.92, sham 0.00) of 1.77 ± 0.28. In addition, the “neurologic deficit score decreased compared to the group administered with Compound 6” value in series [2] (30 mg/kg i.g., BCAO-LBP mice) is “about 15%”. The same compound came in with an MDA content in series [2] (whole cerebrum, 30 mg/kg i.g. once/d for 3 d, x ± SEM, model group 40.94, sham 33.15) of 34.95 ± 1.55 nmol/g. In addition, in series [3], the Papp at 120 min was 19.2 ×10⁻⁶ cm/s.

Turning to `COC(=O)[C@@H](NC(=O)[C@@H]1CSCCN1S(=O)(=O)c1ccc(C)cc1)C(C)C` [Compound 10, (S)-methyl-3-methyl-2((R)-(4-methylphenyl)sulfonyltetrahydro-1,4-thiazin-3-aminoformyl)butyrate], the “Average score” value stood at 1.54 in series [1] (compound 1 pM + NGF 0.15 ng/mL) and 2.38 in series [1] (setting [4]). Besides, the Papp at 120 min in series [3] worked out at 34.1 ×10⁻⁶ cm/s.

As to `Cc1ccc(S(=O)(=O)N2CCSC[C@H]2C(=O)N[C@H](C(=O)OC(C)(C)C)C(C)C)cc1` [Compound 12, (S)-tert-butyl-3-methyl-2((R)-(4-methylphenyl)sulfonyltetrahydro-1,4-thiazin-3-aminoformyl)butyrate], the “Average score” value is given as 1.77 in series [1] (compound 1 pM + NGF 0.15 ng/mL) and 2.48 in series [1] (setting [4]). In series [3], the Papp at 120 min was 22.5 ×10⁻⁶ cm/s.

On to `COC(=O)[C@H](NC(=O)[C@@H]1CSCCN1S(=O)(=O)c1ccc(C)cc1)C(C)C` [Compound 14, (R)-methyl-3-methyl-2((R)-(4-methylphenyl)sulfonyltetrahydro-1,4-thiazin-3-aminoformyl)butyrate], for which the “Average score” value in series [1] (compound 1 pM + NGF 0.15 ng/mL) was 1.44; in series [1] (setting [4]), 2.35. The same compound gave a Papp at 120 min in series [3] of 33.2 ×10⁻⁶ cm/s.

For the compound `COC(=O)[C@H](Cc1ccccc1)NC(=O)[C@@H]1CSCCN1S(=O)(=O)c1ccc(C)cc1` [Compound 16, (S)-methyl-3-phenyl-2((R)-(4-methylphenyl)sulfonyltetrahydro-1,4-thiazin-3-aminoformyl)propionate], the results for the “Average score” value in series [1] (compound 1 pM + NGF 0.15 ng/mL) and in series [1] (setting [4]) were 1.57 and 2.69, respectively. This compound also displayed a Papp at 120 min in series [3] of 39.7 ×10⁻⁶ cm/s.

As for `CCOC(=O)[C@H](Cc1ccccc1)NC(=O)[C@@H]1CSCCN1S(=O)(=O)c1ccc(C)cc1` [Compound 17, (S)-ethyl-3-phenyl-2((R)-(4-methylphenyl)sulfonyltetrahydro-1,4-thiazin-3-aminoformyl)propionate], the entries for the “Average score” value in series [1] (compound 1 pM + NGF 0.15 ng/mL) and in series [1] (setting [4]) were 1.75 and 2.71, respectively. The compound also returned a Papp at 120 min in series [3] of 22.7 ×10⁻⁶ cm/s.

On to `Cc1ccc(S(=O)(=O)N2CCSC[C@H]2C(=O)N[C@@H](Cc2ccccc2)C(=O)OC(C)(C)C)cc1` [Compound 19, (S)-tert-butyl-3-phenyl-2((R)-(4-methylphenyl)sulfonyltetrahydro-1,4-thiazin-3-aminoformyl)propionate], for which the “Average score” value in series [1] (compound 1 pM + NGF 0.15 ng/mL) is recorded as 1.55; in series [1] (setting [4]), 2.49. Also, the Papp at 120 min in series [3] was determined as 42.3 ×10⁻⁶ cm/s.

Take `CCOC(=O)[C@@H](Cc1ccccc1)NC(=O)[C@@H]1CSCCN1S(=O)(=O)c1ccc(C)cc1` [Compound 21, (R)-ethyl-3-phenyl-2((R)-(4-methylphenyl)sulfonyltetrahydro-1,4-thiazin-3-aminoformyl)propionate]: the “Average score” value in series [1] (compound 1 pM + NGF 0.15 ng/mL) is 1.79; in series [1] (setting [4]), 2.74. This compound yielded a Papp at 120 min in series [3] of 25.8 ×10⁻⁶ cm/s.

Turning to `Cc1ccc(S(=O)(=O)N2CCSC[C@H]2C(=O)N[C@H](Cc2ccccc2)C(=O)OC(C)C)cc1` [Compound 24, (R)-isopropyl-3-phenyl-2((R)-(4-methylphenyl)sulfonyltetrahydro-1,4-thiazin-3-aminoformyl)propionate], the “Average score” value was determined as 1.89 in series [1] (compound 1 pM + NGF 0.15 ng/mL) and 2.80 in series [1] (setting [4]). Further, the Papp at 120 min in series [3] was 37.8 ×10⁻⁶ cm/s.

With `Cc1ccc(S(=O)(=O)N2CCSC[C@H]2C(=O)N[C@@H](CCc2ccccc2)C(=O)OC(C)C)cc1` [Compound 25, (S)-isopropyl-4-phenyl-2((R)-(4-methylphenyl)sulfonyltetrahydro-1,4-thiazin-3-aminoformyl)butyrate], the “Average score” value in series [1] (compound 1 pM + NGF 0.15 ng/mL) stood at 1.76; in series [1] (setting [4]), 2.68. In addition, the Papp at 120 min in series [3] was 27.3 ×10⁻⁶ cm/s.

Regarding `Cc1ccc(S(=O)(=O)N2CCSC[C@H]2C(=O)N[C@H](CCc2ccccc2)C(=O)OC(C)C)cc1` [Compound 26, (R)-isopropyl-4-phenyl-2((R)-(4-methylphenyl)sulfonyltetrahydro-1,4-thiazin-3-aminoformyl)butyrate], the “Average score” value in series [1] (compound 1 pM + NGF 0.15 ng/mL) is 1.80; in series [1] (setting [4]), 2.78. This compound returned a Papp at 120 min in series [3] of 35.9 ×10⁻⁶ cm/s.

As a reminder, the Papp is the rate of passage across a membrane or cell layer, normalised by area and donor concentration.
